Data on 19 compounds can be found in US20100076015A1, “Aminopyridine Derivatives” (VANTIA LIMITED, priority 2008, published 2010).

The term IC50 denotes the point on the concentration scale where inhibition reaches its midpoint. A low value points to higher potency.

What all share (type): biochemical
One test has as its target thrombin (Homo sapiens, UniProt P00734). The experiment in a line: Enzyme selectivity: thrombin (chromogenic substrate S-2238). Conditions: chromogenic substrate S-2238, 37° C. The method, then:
(§1) Determination of Enzyme Selectivity
(§2) Selected compounds were further screened for inhibitory activity against other trypsin-like serine proteases using the appropriate enzyme and chromogenic substrate (Chromogenix AB). The activity against the following human enzymes was tested (substrate in brackets):—plasma kallikrein (S-2302), thrombin (S-2238), plasmin (S-2390) and trypsin (S-2222). The enzyme was incubated at 37° C. with the chromogenic substrate. Residual enzyme activity (initial rate of reaction) was determined by measuring the change in optical absorbance at 405 nm.

A further test has as its target trypsin. The experiment in a line: Enzyme selectivity: trypsin (chromogenic substrate S-2222). Conditions: human enzyme, chromogenic substrate S-2222, 37° C. How it is done: as §1, §2
The target in another test is plasmin (Homo sapiens, UniProt P00747). The experiment in a line: Enzyme selectivity: plasmin (chromogenic substrate S-2390). To be noted: chromogenic substrate S-2390, 37° C. The method, then: as §1, §2
Chain of plasmin (P00747 581-810 limits assumed): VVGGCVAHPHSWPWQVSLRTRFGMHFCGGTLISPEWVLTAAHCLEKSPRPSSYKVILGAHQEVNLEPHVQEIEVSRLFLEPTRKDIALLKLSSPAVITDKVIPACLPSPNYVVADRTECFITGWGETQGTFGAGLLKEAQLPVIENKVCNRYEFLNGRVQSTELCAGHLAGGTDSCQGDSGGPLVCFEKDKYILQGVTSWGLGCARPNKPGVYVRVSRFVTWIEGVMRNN
Chain of plasmin (P00747 97-580 partner limits assumed): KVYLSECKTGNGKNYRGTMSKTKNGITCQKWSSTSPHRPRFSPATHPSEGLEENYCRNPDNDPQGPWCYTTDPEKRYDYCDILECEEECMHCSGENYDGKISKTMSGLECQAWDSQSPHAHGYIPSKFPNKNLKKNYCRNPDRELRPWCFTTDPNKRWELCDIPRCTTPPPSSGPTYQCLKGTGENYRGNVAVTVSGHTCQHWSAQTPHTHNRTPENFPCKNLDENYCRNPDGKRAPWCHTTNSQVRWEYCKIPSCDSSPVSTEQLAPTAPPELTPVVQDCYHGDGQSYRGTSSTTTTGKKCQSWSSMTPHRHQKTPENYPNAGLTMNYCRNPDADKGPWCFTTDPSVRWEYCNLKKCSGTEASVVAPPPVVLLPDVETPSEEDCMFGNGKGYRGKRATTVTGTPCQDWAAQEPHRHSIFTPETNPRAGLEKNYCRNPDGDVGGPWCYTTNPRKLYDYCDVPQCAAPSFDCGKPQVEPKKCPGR
A further test has as its target plasma kallikrein (Homo sapiens, UniProt P03952). Briefly: Enzyme selectivity: plasma kallikrein (chromogenic substrate S-2302). Conditions: chromogenic substrate S-2302, 37° C. The method, then: as §1, §2
The target in a further test is T1, Human KLK1 (Homo sapiens, UniProt P06870).
T1 construct: purchased Callbiochem (Calbiochem)
T1 sequence (P06870 25-262): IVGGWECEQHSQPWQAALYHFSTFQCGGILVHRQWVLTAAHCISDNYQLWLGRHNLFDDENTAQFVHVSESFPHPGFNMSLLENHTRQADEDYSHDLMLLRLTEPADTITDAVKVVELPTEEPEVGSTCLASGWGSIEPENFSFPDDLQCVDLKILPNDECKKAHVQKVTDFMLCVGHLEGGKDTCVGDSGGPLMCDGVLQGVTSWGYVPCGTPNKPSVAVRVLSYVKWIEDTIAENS
Briefly: Determination of the IC50 for KLK1 (fluorogenic substrate H-DVal-Leu-Arg-AFC). Conditions: 37° C. An outline of the steps:
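IC50 values reflect residual human KLK1 activity, read as initial rate from optical absorbance change at 410 nm. Incubations ran at 37° C with H-DVal-Leu-Arg-AFC as substrate across a compound concentration series.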

Chain of plasma kallikrein (P03952 20-638): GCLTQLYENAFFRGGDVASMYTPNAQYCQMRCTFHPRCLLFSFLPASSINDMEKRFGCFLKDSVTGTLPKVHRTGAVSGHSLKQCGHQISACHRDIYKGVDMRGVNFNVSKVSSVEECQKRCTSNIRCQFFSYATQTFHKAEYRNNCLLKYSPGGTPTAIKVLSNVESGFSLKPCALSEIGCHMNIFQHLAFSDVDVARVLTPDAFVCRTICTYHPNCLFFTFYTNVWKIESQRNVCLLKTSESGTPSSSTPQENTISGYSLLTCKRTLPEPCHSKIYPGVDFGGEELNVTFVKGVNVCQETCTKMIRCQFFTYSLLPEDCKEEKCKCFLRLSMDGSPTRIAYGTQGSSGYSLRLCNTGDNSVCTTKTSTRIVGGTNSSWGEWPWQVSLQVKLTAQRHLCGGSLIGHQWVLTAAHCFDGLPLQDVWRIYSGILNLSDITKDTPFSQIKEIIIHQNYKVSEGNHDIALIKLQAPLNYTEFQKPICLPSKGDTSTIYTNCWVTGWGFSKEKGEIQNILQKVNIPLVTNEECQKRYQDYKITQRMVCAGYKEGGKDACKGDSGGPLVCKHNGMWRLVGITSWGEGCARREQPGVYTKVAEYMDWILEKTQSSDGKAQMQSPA

On to `Cc1cccc(C[C@H](NC(=O)c2[nH]c(C)cc2C)C(=O)NCc2ccc(N)nc2)c1` [Example 234, 3,5-Dimethyl-1H-pyrrole-2-carboxylic acid {(S)-1-[(6-amino-pyridin-3-ylmethyl)-carbamoyl]-2-m-tolyl-ethyl}-amide], for which the IC50 at thrombin is greater than 10 µM; against trypsin, greater than 10 µM; at plasmin, greater than 10 µM; at plasma kallikrein, greater than 10 µM; on Human KLK1, 0.0032 µM.

Turning to `CN1CCC[C@@H]1C(=O)N[C@@H](Cc1cccc(C(F)(F)F)c1)C(=O)NCc1ccc(N)nc1` [Example 91, (R)-1-Methyl-pyrrolidine-2-carboxylic acid [(S)-1-[(6-amino-pyridin-3-ylmethyl)-carbamoyl]-2-(3-trifluoromethyl-phenyl)-ethyl]-amide], the half-inhibitory concentration (IC50) against thrombin is greater than 10 µM; at trypsin, greater than 10 µM; at plasmin, greater than 10 µM; at plasma kallikrein, greater than 10 µM; on Human KLK1 it was 0.0021 µM.

Consider `CCC(C)[C@@H](N)C(=O)N[C@@H](Cc1ccccc1C(F)(F)F)C(=O)NCc1ccc(N)nc1` (stereo partly drawn) [Example 25, (R)-2-Amino-3-methyl-pentanoic acid [(S)-1-[(6-amino-pyridin-3-ylmethyl)-carbamoyl]-2-(2-trifluoromethyl-phenyl)-ethyl]-amide], for which the IC50 on thrombin is greater than 10 µM; on trypsin, greater than 10 µM; against plasmin it was greater than 10 µM; against plasma kallikrein, greater than 10 µM; on Human KLK1, 0.0098 µM.

Consider `CCC(C)[C@@H](N)C(=O)N[C@@H](Cc1cccc(F)c1)C(=O)NCc1ccc(N)nc1` (stereo partly drawn) [Example 29, (R)-2-Amino-3-methyl-pentanoic acid [(S)-1-[(6-amino-pyridin-3-ylmethyl)-carbamoyl]-2-(3-fluoro-phenyl)-ethyl]-amide], for which the IC50 against thrombin was greater than 10 µM; against trypsin it was greater than 10 µM; on plasmin, greater than 10 µM; against plasma kallikrein, greater than 10 µM; at Human KLK1 it was 0.0102 µM.

With `Nc1ccc(CNC(=O)[C@H](Cc2cccc(C(F)(F)F)c2)NC(=O)c2ccc[nH]2)cn1` [Example 229, 1H-Pyrrole-2-carboxylic acid [(S)-1-[(6-amino-pyridin-3-ylmethyl)-carbamoyl]-2-(3-trifluoromethyl-phenyl)-ethyl]-amide], the IC50 was greater than 10 µM on thrombin; greater than 10 µM against trypsin; greater than 10 µM on plasmin; greater than 10 µM against plasma kallikrein; 0.0034 µM on Human KLK1.

`Nc1ccc(CNC(=O)[C@H](CC2CCCC3CCCCC32)NC(=O)c2ccc[nH]2)cn1` (stereo partly drawn) [Example 227, 1H-Pyrrole-2-carboxylic acid [(S)-1-[(6-amino-pyridin-3-ylmethyl)-carbamoyl]-2-(decahydro-naphthalen-1-yl)-ethyl]-amide]: the IC50 is greater than 10 µM against thrombin; greater than 10 µM against trypsin; greater than 10 µM against plasmin; greater than 10 µM on plasma kallikrein; 0.0053 µM on Human KLK1.

Turning to `CC(C)N(CC(=O)N[C@@H](Cc1ccc(F)c(F)c1)C(=O)NCc1ccc(N)nc1)C(C)C` [Example 157, (S)—N-(6-Amino-pyridin-3-ylmethyl)-3-(3,4-difluoro-phenyl)-2-(2-diisopropylamino-acetylamino)-propionamide], the IC50 against thrombin is greater than 10 µM; against trypsin, greater than 10 µM; against plasmin, greater than 10 µM; at plasma kallikrein, greater than 10 µM; on Human KLK1 it was 0.123 µM.

In the case of `Nc1ccc(CNC(=O)[C@H](Cc2ccc(Cl)c(Cl)c2)NC(=O)[C@H](N)Cc2ccc(Cl)cc2)cn1` [Example 59, (R)-2-Amino-N-[(S)-1-[(6-amino-pyridin-3-ylmethyl)-carbamoyl]-2-(3,4-dichloro-phenyl)-ethyl]-3-(4-chloro-phenyl)-propionamide], the IC50 was greater than 10 µM at thrombin; greater than 10 µM against trypsin; greater than 10 µM against plasmin; greater than 10 µM on plasma kallikrein; 0.00056 µM against Human KLK1.

Take `Cc1cc(C)c(C(=O)N[C@@H](Cc2cccc(C(F)(F)F)c2)C(=O)NCc2ccc(N)nc2)[nH]1` [Example 232, 3,5-Dimethyl-1H-pyrrole-2-carboxylic acid [(S)-1-[(6-amino-pyridin-3-ylmethyl)-carbamoyl]-2-(3-trifluoromethyl-phenyl)-ethyl]-amide]: the IC50 against thrombin was greater than 10 µM; at trypsin it was greater than 10 µM; at plasmin, greater than 10 µM; against plasma kallikrein, greater than 10 µM; against Human KLK1, 0.0015 µM.

Turning to `CN1CCCC[C@@H]1C(=O)N[C@@H](Cc1ccc(F)cc1)C(=O)NCc1ccc(N)nc1` [Example 145, (R)-1-Methyl-piperidine-2-carboxylic acid [(S)-1-[(6-amino-pyridin-3-ylmethyl)-carbamoyl]-2-(4-fluoro-phenyl)-ethyl]-amide], the IC50 was greater than 10 µM at thrombin; greater than 10 µM at trypsin; greater than 10 µM on plasmin; greater than 10 µM on plasma kallikrein; 0.0105 µM against Human KLK1.

As to `CCC(C)[C@@H](NC)C(=O)N[C@@H](Cc1ccc(Cl)c(Cl)c1)C(=O)NCc1ccc(N)nc1` (stereo partly drawn) [Example 3, (R)-3-Methyl-2-methylamino-pentanoic acid [(S)-1-[(6-amino-pyridin-3-ylmethyl)-carbamoyl]-2-(3,4-dichloro-phenyl)-ethyl]-amide], the IC50 on thrombin is greater than 10 µM; against trypsin, greater than 10 µM; against plasmin, greater than 10 µM; on plasma kallikrein it was greater than 10 µM; at Human KLK1 it was 0.00022 µM.

On to `CC(C)N(C)[C@@H](C)C(=O)N[C@@H](CC1CCCCC1)C(=O)NCc1ccc(N)nc1` [Example 381, (S)—N-{(S)-1-[(6-Amino-pyridin-3-ylmethyl)-carbamoyl]-2-cyclohexyl-ethyl}-2-(isopropyl-methyl-amino)-propionamide], for which the 50% inhibitory concentration (IC50) against thrombin was greater than 10 µM; at trypsin, greater than 10 µM; against plasmin it was greater than 10 µM; against plasma kallikrein, greater than 10 µM; on Human KLK1 it was 0.0011 µM.

`Cc1cc[nH]c1C(=O)N[C@@H](Cc1ccc(F)c(F)c1)C(=O)NCc1ccc(N)nc1` [Example 226, 3-Methyl-1H-pyrrole-2-carboxylic acid [(S)-1-[(6-amino-pyridin-3-ylmethyl)-carbamoyl]-2-(3,4-difluoro-phenyl)-ethyl]-amide]: the concentration for half-maximal inhibition (IC50) against thrombin is greater than 10 µM; against trypsin it was greater than 10 µM; against plasmin it was greater than 10 µM; against plasma kallikrein, greater than 10 µM; on Human KLK1 it was 0.0101 µM.

As to `CCC(C)[C@@H](N)C(=O)N[C@@H](Cc1cccc2ccccc12)C(=O)NCc1ccc(N)nc1` (stereo partly drawn) [Example 1, (R)-2-Amino-3-methyl-pentanoic acid {(S)-1-[(6-amino-pyridin-3-ylmethyl)-carbamoyl]-2-naphthalen-1-yl-ethyl}-amide], the IC50 was greater than 10 µM against thrombin; greater than 10 µM on trypsin; greater than 10 µM on plasmin; greater than 10 µM against plasma kallikrein; 0.00096 µM on Human KLK1.

As to `CCC(C)[C@H](C(=O)N[C@@H](Cc1csc2ccccc12)C(=O)NCc1ccc(N)nc1)N(C)S(C)(=O)=O` (stereo partly drawn) [Example 213, (R)-2-(Methanesulfonyl-methyl-amino)-3-methyl-pentanoic acid {(S)-1-[(6-amino-pyridin-3-ylmethyl)-carbamoyl]-2-benzo[b]thiophen-3-yl-ethyl}-amide], the IC50 is greater than 10 µM against thrombin; greater than 10 µM at trypsin; greater than 10 µM against plasmin; greater than 10 µM on plasma kallikrein; 0.0028 µM on Human KLK1.

Regarding `CN[C@H](C)C(=O)N[C@@H](Cc1ccc(Cl)c(Cl)c1)C(=O)NCc1ccc(N)nc1` [Example 62, (R)—N-[(S)-1-[(6-Amino-pyridin-3-ylmethyl)-carbamoyl]-2-(3,4-dichloro-phenyl)-ethyl]-2-methylamino-propionamide], the IC50 was greater than 10 µM at thrombin; greater than 10 µM on trypsin; greater than 10 µM at plasmin; greater than 10 µM against plasma kallikrein; 0.0024 µM against Human KLK1.

Consider `CCN(CC)[C@@H](C)C(=O)N[C@@H](Cc1ccc(F)c(F)c1)C(=O)NCc1ccc(N)nc1` [Example 355, (S)—N-[(S)-1-[(6-Amino-pyridin-3-ylmethyl)-carbamoyl]-2-(3,4-difluoro-phenyl)-ethyl]-2-diethylamino-propionamide], for which the half-maximal inhibitory concentration (IC50) against thrombin was greater than 10 µM; against trypsin it was greater than 10 µM; on plasmin, greater than 10 µM; against plasma kallikrein, greater than 10 µM; against Human KLK1, 0.0025 µM.

In the case of `CN1CCC[C@@H]1C(=O)N[C@@H](Cc1cccc2ccccc12)C(=O)NCc1ccc(N)nc1` [Example 92, (R)-1-Methyl-pyrrolidine-2-carboxylic acid {(S)-1-[(6-amino-pyridin-3-ylmethyl)-carbamoyl]-2-naphthalen-1-yl-ethyl}-amide], the 50% inhibitory concentration (IC50) was greater than 10 µM at thrombin; greater than 10 µM against trypsin; greater than 10 µM on plasmin; greater than 10 µM against plasma kallikrein; 0.0036 µM against Human KLK1.

Consider `Nc1ccc(CNC(=O)[C@H](Cc2ccc(Cl)c(Cl)c2)NC(=O)[C@H]2CCCN2)cn1` [Example 4, (R)-Pyrrolidine-2-carboxylic acid [(S)-1-[(6-amino-pyridin-3-ylmethyl)-carbamoyl]-2-(3,4-dichloro-phenyl)-ethyl]-amide], for which the IC50 on thrombin, against trypsin, against plasmin and against plasma kallikrein was greater than 10 µM each time.
